# Results published in PMC7112222, “Investigation of pyrimidine nucleoside analogues as chemical probes to assess compound effects on the proliferation of Trypanosoma cruzi intracellular parasites” (PLoS Neglected Tropical Diseases, 2020).
# Structures can show the parent of a compound that is named as a salt. Where two headings read alike, the source gives them in different places.
# Tests used:
# [1] = tested on: T. cruzi intracellular amastigotes; parameters: method as in PMID 27120069; conditions: treatment for 48 hours; cited from earlier work
# T. cruzi amastigote DNA = assay: Incorporation of pyrimidine nucleoside analogues into T. cruzi amastigote DNA (click chemistry, colocalisation with Hoechst); assay type: cell-based, Trypanosoma cruzi
# Protocol: T. cruzi infected 3T3 fibroblasts were initially exposed to nucleoside analogues for 48 hours at concentrations ranging from 73 μM to 1.8 x10^-4 μM. Host cell, parasite and compound additions were carried out as previously described. Cells were then stained using a click chemistry azide cocktail, followed by Hoechst to identify nuclear material, as previously reported. The freshly prepared azide cocktail consisted of a final concentration of 5 μM of Alexa Fluor 488 azide (Thermo Fisher Scientific, USA), 1 mM copper sulfate (Sigma Aldrich, USA) and 100 mM sodium ascorbate (Sigma Aldrich, USA), in DPBS. Wells were imaged on an Opera image-based reader (Perkin Elmer, USA) at 20x magnification with 405 nm (defined as Hoechst channel) and 488 nm (defined as Alexa 488 channel) lasers using filter sets/bandwidth (emission) of 450/50 nm and 540/75 nm, respectively. To determine nucleoside analogue incorporation into T. cruzi amastigote DNA, a script was developed utilising the Columbus (PerkinElmer, USA) image-based analysis and data handling platform (CHEMICAL LABEL INCORPORATION SCRIPT). Nucleoside analogues were also tested for DNA incorporation following 2, 4 and 24 hours exposure, at the same concentrations. All experiments were performed in duplicate. The colocalisation of nucleoside analogues and Hoechst (replicating parasites) at each time point (48, 4 and 2 hours) was compared using GraphPad Prism 5.
# A CHEMICAL LABEL INCORPORATION SCRIPT developed in Columbus firstly identified Hoechst stained parasites within host cells by spot analysis, utilizing the same building block analysis as we had previously developed to determine T. cruzi infected cells. The physical definition of amastigote DNA was identified by Hoechst, with the only modification being that as there was no cytoplasmic marker, thus segmentation borders in the Hoechst channel were applied, which effectively separated host cells (Fig 2). Further building blocks were added to calculate the intensity of Alexa Fluor 488 within the spots identified by Hoechst, in infected cells. This script was first applied to images to determine the mean fluorescence intensity in the Alexa 488 channel of Hoechst identified parasites, without the addition of the chemical label. The mean plus three times the standard deviation of this intensity was used to define values above background, thus the minimum intensity above background required to identify parasite DNA which successfully incorporated the chemical label. An input box was incorporated into the script, in which this minimum intensity above background was entered. Parameters of the developed script, “CHEMICAL LABEL INCORPORATION” are shown in S1 Table.
# • Number of T. cruzi amastigote infected cells (≥5 parasites per cell, identified with Hoechst). • Number of Hoechst identified T. cruzi parasites (in infected cells). • Number of parasites incorporating chemical label (T. cruzi parasites with Alexa 488 intensity above background, in infected cells). • % chemical label incorporation. Alexa 488 spots in infected cells (above background) NO / Hoechst spots in infected cells NO *100 = Percentage colocalisation; where NO = number of objects. • Number of host cells.
# [2] = tested on: T. cruzi intracellular amastigotes; assay: Image-based assay of the number of T. cruzi infected cells (intracellular amastigotes in 3T3 host cells); assay type: cell-based, Trypanosoma cruzi; conditions: 2 and 4 hour exposures; 73 μM
# 3T3 cells = assay: Image-based assay, effect on 3T3 host cells; assay type: cell-based; conditions: for Host cell 3T3 IC50 value 48 h: highest test concentration 183 μM
# Protocol: (§1) Parasites and host cells were maintained as outlined previously. Briefly, host 3T3 fibroblasts (ATCC, CCL-92) were grown in RPMI medium (Thermo Fisher Scientific, USA) with no phenol red, supplemented with 10% FBS (Thermo Fisher Scientific, USA) and incubated at 37°C in 5% CO2. Host cells were harvested at 70% confluency and were split every 2–3 days in 175 cm^2 flasks. 3T3 cells were cultured up to passage 7 as contact inhibition was reduced or lost at higher passages. Prior to infection with T. cruzi trypomastigotes, host cells were seeded at 1.2 x 10^6 cells in 75 cm^2 or 4 x 10^5 cells in 25 cm^2 flasks and grown for 24 hours before parasite addition. Parasites were added at a multiplicity of infection (MOI) of 10:1 and incubated for 24 hours before non-infected trypomastigotes were washed off the host cell bed with PBS supplemented with Ca^2+ and Mg^2+ (Thermo Fisher Scientific, USA). Incubation was continued for a further 3 days, until tissue culture trypomastigotes began to egress from host cells. Egressed parasites were used for assays or to continue the infective life cycle in vitro.
# […] Briefly, 14-point serial dilutions of the compounds in 100% DMSO were prepared and then further diluted in sterile water at a ratio of 1:21 compound: water. Five microliters of the diluted compounds were added to wells of T. cruzi infected host cells, using a MiniTrak compound handling device (Perkin Elmer, USA) with final concentrations in the plate ranging from 183 μM to 4.6 x 10^−4 μM. All experiments were performed with two separate biological replicates.
# Image analysis was performed with a script developed in Columbus software (CHEMICAL LABEL INCORPORATION SCRIPT). Control wells were also imaged at an increased, 60x magnification to show the distribution of staining and the structure of the parasites within host cells. Eight background control wells consisted of infected host cells, fixed and exposed to Hoechst and the click chemistry cocktail, without the addition of the chemical probe EdU. […] The percentage activity of compounds against parasite number / infected cells (identified with Hoechst) was calculated against a positive control of 12 μM of NFX for the parasite and 30 μM of PURO the host cells; and a negative control of 0.47% DMSO. All images taken were not modified and were taken on an Opera, confocal image-based reader.
# HEK293 cells = assay: Redox-based assay to assess HEK293 viability; assay type: cell-based, human; conditions: 48 hours exposure; highest test concentration 87 μM; EdU value estimated, relative to Emax plateau of 57%
# Protocol: To determine the effect of the nucleoside analogues against a replicating mammalian cell line, analogues were tested against HEK293 cells, utilising a REDOX-based metabolic assay to assess cell viability as previously described. […] Experiments were performed over two biological replicates.
# [3] = tested on: T. cruzi intracellular amastigotes; assay: Image-based assay of the number of T. cruzi infected cells (intracellular amastigotes in 3T3 host cells); assay type: cell-based, Trypanosoma cruzi; conditions: for inhibition at 183 µM / IC50 / Emax: Trypanosoma cruzi
# Protocol: as §1
# The activity of the nucleoside analogues against T. cruzi intracellular amastigotes following 24, 48 hours exposure and compound wash off, was determined using image-based techniques as previously described. Briefly, 14-point serial dilutions of the compounds in 100% DMSO were prepared and then further diluted in sterile water at a ratio of 1:21 compound: water. Five microliters of the diluted compounds were added to wells of T. cruzi infected host cells, using a MiniTrak compound handling device (Perkin Elmer, USA) with final concentrations in the plate ranging from 183 μM to 4.6 x 10^−4 μM. All experiments were performed with two separate biological replicates.
# IC50 values for inhibitory activity of both the nucleoside analogues tested as DNA probes and known inhibitors tested to determine their effect on replication of T. cruzi were calculated in GraphPad Prism 5, using sigmoidal dose response with variable slope. […] The p-value for difference in the % activity at Emax concentrations for compounds with known activity (EdU identified parasites, compared to Hoechst identified parasites) against T. cruzi was determined using GraphPad Prism 5, using an unpaired student’s t-test. […] The Emax for each compound was at least two data points in from the beginning of the plateau of activity in the IC50 curve, as previously described.
# [4] = tested on: T. cruzi intracellular amastigotes; assay: Detection of T. cruzi replication following exposure to inhibitors (EdU incorporation vs Hoechst); assay type: cell-based, Trypanosoma cruzi; conditions: Trypanosoma cruzi; for IC50: 48 hours exposure, mean ± SD
# Protocol: The addition of host cells, parasites and compounds were as described for the T. cruzi image based method previously reported. […] Addition of nuclear and cytoplasmic dyes was undertaken as previously reported and images captured on an Opera confocal image-based system at 20x magnification. Image analysis was performed with a script developed in Columbus software (CHEMICAL LABEL INCORPORATION SCRIPT). Control wells were also imaged at an increased, 60x magnification to show the distribution of staining and the structure of the parasites within host cells. Eight background control wells consisted of infected host cells, fixed and exposed to Hoechst and the click chemistry cocktail, without the addition of the chemical probe EdU. […] All images taken were not modified and were taken on an Opera, confocal image-based reader.
# [5] = 24 hours exposure, highest test concentration 183 μM, read-out: T. cruzi 24 IC50 value
# [6] = 24 hours exposure, read-out: T. cruzi 24 relative Emax (in brackets) (converted)
# [7] = 48 hours incubation, highest test concentration 183 μM, read-out: T. cruzi 48 IC50 value
# [8] = 48 hours incubation, read-out: T. cruzi 48 relative Emax (in brackets) (converted)
smiles,measurement,setting,value
"CN1CCC[C@@H]1CCO[C@](C)(c1ccccc1)c1ccc(Cl)cc1 [CF, clemastine fumarate]","T. cruzi infected cells, identified with Hoechst, remaining",[1],3%
"C#Cc1cn([C@H]2C[C@H](O)[C@@H](CO)O2)c(=O)nc1N [EdC, 5-ethynyl-2′-deoxy-cytidine]",% of parasites with incorporation,"T. cruzi amastigote DNA; 2 hours, 37 μM",71 ± 2.9%
same,% of parasites with incorporation,"T. cruzi amastigote DNA; 4 hours, 7.3 μM",84 ± 3.5%
same,incorporation into T. cruzi DNA following 48 hours incubation (in words),T. cruzi amastigote DNA,incorporated
same,% of cells that incorporated the DNA chemical label,"T. cruzi amastigote DNA; 48 hours, 0.73 μM",89 ± 2.7%
same,activity against T. cruzi amastigote growth after short exposure,[2],less than 20%
same,activity against host cells after short exposure,"3T3 cells; 2 and 4 hour exposures, 73 μM",less than 20%
same,Host cell 3T3 IC50 value 48 h,3T3 cells,NA (NA = ≤50% activity at the highest concentration tested and an IC50 value could not be determined)
same,activity against 3T3 cells in the image-based assay,3T3 cells; 48 hours,< 20%
same,HEK293 IC50 value,HEK293 cells,NA (NA = ≤50% activity at the highest concentration tested and an IC50 value could not be determined)
same,SI (selectivity index to T. cruzi intracellular amastigotes in relation to HEK293 cells),[3]; 48 hours exposure,> 26
same,inhibition at 183 µM,"[3]; at 183 μM, 48 hours incubation, wash off, further 72 hours, read-out: T. cruzi Wash off percentage inhibition at the highest test concentration",90%
same,IC50,[3]; [5],12500 ± 2000 nM
same,Emax,[3]; [6],69%
same,IC50,[3]; [7],7100 ± 3700 nM
same,Emax,[3]; [8],87%
"C#Cc1cn([C@@H]2O[C@H](CO)[C@@H](O)[C@@H]2I)c(=O)[nH]c1=O [I-ara-EdU, (2′S)-2′-deoxy-5-ethynyl-2′-iodo-uridine]",incorporation into T. cruzi DNA following 48 hours incubation (in words),T. cruzi amastigote DNA,did not
same,incorporation (no incorporation observed),"T. cruzi amastigote DNA; 48 hours, concentrations up to a maximum of 73 μM",< 20%
same,Host cell 3T3 IC50 value 48 h,3T3 cells,NA (NA = ≤50% activity at the highest concentration tested and an IC50 value could not be determined)
same,HEK293 IC50 value,HEK293 cells,NA (NA = ≤50% activity at the highest concentration tested and an IC50 value could not be determined)
same,T. cruzi 24 IC50 value,"[3]; 24 hours exposure, highest test concentration 183 μM",NA (NA = ≤50% activity at the highest concentration tested and an IC50 value could not be determined)
same,T. cruzi Wash off IC50 value,"[3]; 48 hours incubation, compound wash off, further 72 hours without compound, highest test concentration 183 μM",NA (NA = ≤50% activity at the highest concentration tested and an IC50 value could not be determined)
same,T. cruzi 48 IC50 value,"[3]; 48 hours incubation, highest test concentration 183 μM",NA (NA = ≤50% activity at the highest concentration tested and an IC50 value could not be determined)
same,inhibition at 183 µM,"[3]; 48 h, 183 μM, 48 hours incubation, read-out: inhibition of T. cruzi growth at highest test concentration",≤ 50%
"CC1CS(=O)(=O)CCN1/N=C/c1ccc([N+](=O)[O-])o1 (centres unmarked) [NFX, nifurtimox]",Host cell 3T3 IC50 value 48 h,3T3 cells,NA (NA = ≤50% activity at the highest concentration tested and an IC50 value could not be determined)
same,HEK293 IC50 value,HEK293 cells,NA (NA = ≤50% activity at the highest concentration tested and an IC50 value could not be determined)
same,inhibition at 63 µM,"[4]; 2 h, read-out: mean inhibition of incorporation of EdU into the parasite DNA",57 ± 9.1%
same,IC50,"[4]; then 0.37 μM EdU for 4 hours, number of EdU incorporating parasites, read-out: IC50 value Amastigotes (EdU)",210 ± 1.8 nM
same,IC50,"[4]; number of Hoechst identified parasites in infected cells, read-out: IC50 value Amastigotes (Hoechst)",320 ± 24 nM
same,SI (selectivity index to T. cruzi intracellular amastigotes in relation to HEK293 cells),[3]; 48 hours exposure,> 143
same,IC50,"[3]; read-out: IC50 value of positive assay control in the 2 and 4 hour exposure experiment, control exposure for 48 hours",1000 ± 101 nM
same,IC50,[3]; [5],1720 ± 860 nM
same,Emax,[3]; [6],100%
same,IC50,"[3]; 48 hours exposure, well-established intracellular infection assay, mean ± SD, POSA value based on sub-optimal effect (Emax 75%), read-out: IC50 value Infected cells (Hoechst)",800 ± 90 nM
same,IC50,"[3]; 48 hours incubation, compound wash off, further 72 hours without compound, highest test concentration 183 μM, read-out: T. cruzi Wash off IC50 value",1410 ± 1080 nM
same,Emax,"[3]; 48 hours incubation, wash off, further 72 hours without compound, read-out: T. cruzi Wash off relative Emax (in brackets) (converted)",100%
same,IC50,[3]; [7],970 ± 26 nM
same,Emax,[3]; [8],100%
